The structures appear in SMILES notation. Values joined by “and” are separate entries in the source; they are usually repeats but may differ in a detail not shown here. Identical values can stand only once. Like-named read-outs stand apart in the source and are kept apart here.

We go through six compounds from patent US6225306A, “Biphenyl derivatives and drug composition” (Wakamoto Pharmaceutical Co., Ltd., priority 1997, dated 2001).

Data set [1] has as its system Normal Conscious Rat. Kind of data set: Aquaretic Effects in Normal Conscious Rat (urine volume). The class given is in vivo, rat (Sprague-Dawley, male). How it is done:
Aquaretic Effects in Normal Conscious Rat
(§1) Studies were performed with Sprague-Dawley male SPF rats (body weight: 240 to 320 g; 8-week-old). In this experiment, each group consisted of not less than 4 animals and rats were fasted over 16 to 20 hours. The animals were acclimatized in metabolic cages for one hour, then each compound to be tested was dissolved in 100% N,N-dimethylformamide or suspended in 5% gum arabic solution and administered to these animals intravenously (iv.) in a dose of 3 mg/kg or orally (p.o.) in a dose of 30 mg/kg. Immediately after the test compound or vehicle were orally administered, saline (25 ml/kg) was given orally. Spontaneous voided urines were collected for 4 hours after the administration of the compound and the amount of the urine were determined. In this case, the control group consisted of animals to which only 5% gum arabic was orally administered.
In addition, known compounds of Comparative Examples 2 and Comparative Examples 3 and 4 represented by the following formulas were used as control compounds.

The target of a further data set is Vasopressin V2 Receptor (Rattus norvegicus, UniProt Q00788). Kind of data set: biochemical. The class given is binding, rat (Sprague-Dawley, female; kidney crude membrane). To be noted: for inhibition at 0.1 µM: 1 h, read-out: Binding Rate of Vasopressin V2 Receptor; for IC50: [3H] vasopressin V2 antagonist 2 nM, 25° C., 60 minutes, read-out: Affinity for Vasopressin V2 Receptor, IC50.
Chain of Vasopressin V2 Receptor (Q00788 whole entry): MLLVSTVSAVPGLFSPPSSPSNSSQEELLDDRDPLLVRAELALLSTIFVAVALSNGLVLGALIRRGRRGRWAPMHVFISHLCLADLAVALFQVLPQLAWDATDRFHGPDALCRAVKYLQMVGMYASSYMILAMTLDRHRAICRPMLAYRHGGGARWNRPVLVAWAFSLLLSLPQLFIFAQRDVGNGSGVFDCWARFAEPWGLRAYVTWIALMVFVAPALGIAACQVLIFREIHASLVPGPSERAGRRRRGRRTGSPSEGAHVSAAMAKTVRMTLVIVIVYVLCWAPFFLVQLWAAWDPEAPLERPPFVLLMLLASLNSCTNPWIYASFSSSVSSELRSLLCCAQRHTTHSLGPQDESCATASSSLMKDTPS

Another data set deals with male ICR mice. Nature of the data set: Acute Toxicity Test. It is filed as in vivo. How it is done:
To groups of male ICR mice (6-week-old) each consisting of 5 animals, there were orally administered the compounds of Examples 13, 18, 25 and 30 and Comparative Examples 2 and 5 suspended in 5% gum arabic solution at doses of 150, 500 and 1500 mg/kg, followed by observation of the general symptoms of these animals during 7 days after the administration to thus evaluate the number of death. In this respect, mice were given feed and water ad libitum throughout this test except for the term extending from 16 to 20 hours before the administration and 4 hours after the administration.

In a further data set the target is Vasopressin V1 Receptor (Rattus norvegicus, UniProt P30560). Kind of data set: biochemical. To be noted: for inhibition at 0.1 µM: 1 h, read-out: Binding Rate of Vasopressin V1 Receptor. It is filed as binding, rat (Sprague-Dawley, female; liver crude membrane).
Chain of Vasopressin V1 Receptor (P30560 whole entry): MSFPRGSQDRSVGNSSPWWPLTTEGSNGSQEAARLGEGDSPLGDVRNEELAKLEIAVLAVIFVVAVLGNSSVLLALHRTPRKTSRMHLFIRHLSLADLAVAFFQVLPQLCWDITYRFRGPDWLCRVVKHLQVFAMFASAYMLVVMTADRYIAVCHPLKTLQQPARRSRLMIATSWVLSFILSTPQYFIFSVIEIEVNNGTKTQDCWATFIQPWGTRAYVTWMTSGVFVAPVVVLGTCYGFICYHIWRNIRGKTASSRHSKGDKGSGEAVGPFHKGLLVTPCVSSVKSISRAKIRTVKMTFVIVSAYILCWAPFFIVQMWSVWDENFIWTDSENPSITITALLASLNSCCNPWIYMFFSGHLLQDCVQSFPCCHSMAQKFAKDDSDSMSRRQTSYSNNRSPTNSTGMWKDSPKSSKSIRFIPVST
Data set [2] deals with Normal Conscious Rat. Nature of the data set: Urinary electrolytes and urinary osmotic pressure in conscious rat. To be noted: 0-2 hours, relation to urine volume. The class given is in vivo, rat (Sprague-Dawley, male). As for the experimental part:
as §1
Separately, the cumulative urine in each animal was collected for 2 hours after the administration of the compound, and analyze the amounts of sodium and potassium as electrolytes present in the urine (ion-selective electrode method), the amount of chlorine (coulometric titration) and urinary osmotic pressure (cryoscopic method). The results thus observed for typical compounds of the present invention are plotted on the accompanying drawings (FIGS. 1, 2, 3 and 4). […]. In this test, each compound tested was used in the following dose. […]

Setting [3] is: 500 mg/kg, oral, 7 days observation.
The mark [4] stands for this setting: 1500 mg/kg, oral, 7 days observation.
Where [5] appears, read: 10^-7 M, inhibition rate at this concentration.
The mark [6] stands for this setting: 150 mg/kg, oral, 7 days observation.
[7] abbreviates: [3H] vasopressin V1 antagonist 2 nM, 25° C., 60 minutes, read-out: Affinity for Vasopressin V1 Receptor, IC50.

Experimental for Vasopressin V1 Receptor: The livers excised from Sprague-Dawley female rats were cut into small pieces, and were homogenized in 50 mM Tris-HCl, pH 7.4 hereunder referred to as "buffer"). The homogenate was centrifuged at 50000×g, at 4° C. for 20 minutes. The pellet was added the buffer in an amount of 10 times the volume of the pellet, the mixture was recentrifuged by the same method as described above to wash the residue. The buffer was further added to the resulting pellet so that the protein content thereof was adjusted to 10 mg/ml to thus give a crude membrane fraction of rat liver. The crude membrane fraction of rat liver was used in the following test. More specifically, 5000 μg of the crude liver membrane was incubated with [^3 H]-Arg-vasopressin V-1 antagonist ([^3 H) vasopressin V1 antagonist: 2 nM) and various concentration (3×10^-12 to 10^-6) of the test compounds in a 1000 μL of buffer containing 10 mM magnesium chloride, 10 mM potassium chloride and 0.1% bovine serum albumin at 25° C. for 60 minutes. Thereafter the incubation mixture was rapidly filtered by vacuum using a cell harvester. The filters were washed with buffer to remove free ligands and excess buffer, and to thus trap labeled ligand linked with the receptor on the filter paper. The filter paper was sufficiently dried and mixed with a liquid scintillator, and the amount of the [^3 H] vasopressin V1 antagonist bonded to the membrane was determined using a liquid scintillation counter. The inhibition rate at each concentration was calculated according to the following equation:
Inhibition Rate (%)=100-[(B-N)/(B0 -N)]×100
Wherein B represents the amount of the [^3 H] vasopressin V1 antagonist bonded to the membrane in the presence of known amounts of the compound to be tested and the [^3 CH] vasopressin V1 antagonist;
B0 represents the amount of the [^3 H] vasopressin V1 antagonist bonded to the membrane in the absence of the compound to be tested;
N represents the amount of the [^3 H] vasopressin V1 antagonist bonded to the membrane in the presence of an excess of vasopressin (10^-6 M).
The IC50 value (the concentration required to cause 50% inhibition of the specific binding of [^3 H]-V1 antagonist) was determined. […] On the other hand, for the compounds which were investigated only one concentration (10^-7 M), the inhibition rate at that concentration was defined to be the binding rate.

Usually IC50 stands for the concentration that inhibits the measured activity by half. For `Cc1ccccc1C(=O)Nc1ccc(C(=O)N2CCCC(N(C)C)c3ccccc32)cc1` (stereo not shown) [Comp. Ex. 2, reference compound], the “Amount of Urine Volume” value in the data set with Normal Conscious Rat [1] (3 mg/kg, i.v.) was determined as 22.9 ml/kg/0-4 hr; in the data set on Normal Conscious Rat [1] (30 mg/kg, p.o.), 79.1 ml/kg/0-4 hr. Further, the inhibition at 0.1 µM was determined as 91.2% at Vasopressin V2 Receptor and 3.4% at Vasopressin V1 Receptor. Also, the “number of death out of 5 or 6 animals” value in the data set on male ICR mice (mouse, in vivo) was 4 out of 5 and 0/5 and 4/5. The compound also displayed a concentration for half-maximal inhibition (IC50) against Vasopressin V1 Receptor greater than 1000 nM.
Consider `NS(=O)(=O)c1cc(C(=O)O)c(NCc2ccco2)cc1Cl` [Comp. Ex. 3, Furosemide, reference compound], for which the “Amount of Urine Volume” value with Normal Conscious Rat [1] (3 mg/kg, i.v.) is reported as 27.3 ml/kg/0-4 hr; in the data set with Normal Conscious Rat [1] (30 mg/kg, p.o.) it was 59.9 ml/kg/0-4 hr. In addition, the urinary osmotic pressure result with Normal Conscious Rat [2] (FIG. 4) is given as “increased approximately in proportion to the increase in the amount of the urine”. Moreover, in the data set with Normal Conscious Rat [2] (FIGS. 1-3), the “amount of electrolytes excreted in the urine” value is reported as “increased approximately in proportion to the increase in the amount of the urine”.
In the case of `O=C(Nc1ccc(C(=O)N2C[C@H]3C[C@@H](O)CN3c3ccccc32)cc1)c1ccccc1-c1ccccc1` [Example 13, (2R,3aR)-2-Hydroxy-5-[4-[(2-Phenylbenzoyl) Amino]Benzoyl]-1,2,3,3a,4,5-Hexahydro-Pyrrolo[1,2-a]Quinoxaline], the “Amount of Urine Volume” value is given as 55.6 ml/kg/0-4 hr with Normal Conscious Rat [1] (3 mg/kg, i.v.) and 82.0 ml/kg/0-4 hr in the data set with Normal Conscious Rat [1] (30 mg/kg, p.o.). For the same compound, the “number of death out of 5 or 6 animals” value in the data set with male ICR mice (setting [3]) and in the data set with male ICR mice (setting [4]) was 0/5 throughout.
Consider `Cc1ccc(-c2ccccc2C(=O)Nc2ccc(C(=O)N3C[C@H]4C[C@H](O)CN4c4ccccc43)cc2)cc1` [Example 18, (2S, 3aR)-2-Hydroxy-5-[4-[[2-(4-Tolyl) Benzoyl]Amino]Benzoyl]-1,2,3,3a,4,5-Hexahydro-Pyrrolo[1,2-a]Quinoxaline], for which the “Amount of Urine Volume” value in the data set on Normal Conscious Rat [1] (3 mg/kg, i.v.) is 79.2 ml/kg/0-4 hr; with Normal Conscious Rat [1] (30 mg/kg, p.o.), 96.3 ml/kg/0-4 hr. Moreover, the inhibition at 0.1 µM amounted to 100% on Vasopressin V2 Receptor (setting [5]) and 58.3% on Vasopressin V1 Receptor (setting [5]). Further, the values for the half-maximal inhibitory concentration (IC50) on Vasopressin V2 Receptor and at Vasopressin V1 Receptor (setting [7]) were 0.18 nM and 66 nM, respectively. Moreover, the “number of death out of 5 or 6 animals” value with male ICR mice (setting [6]), in the data set with male ICR mice (setting [3]) and in the data set with male ICR mice (setting [4]) was 0/6 throughout.
`O=C(Nc1ccc(C(=O)N2C[C@@H]3CCCN3C(=O)c3ccccc32)cc1)c1ccccc1-c1ccccc1` [Example 25, (11aS)-10-[4-[(2-Phenylbenzoyl) Amino]Benzoyl]-1,2,3,10,11, 11a-Hexahydro-5H-Pyrrolo[2,1-c][1,4]Benzodiazepin-5-One]: the “Amount of Urine Volume” value with Normal Conscious Rat [1] (3 mg/kg, i.v.) is 58.5 ml/kg/0-4 hr; in the data set on Normal Conscious Rat [1] (30 mg/kg, p.o.) it was 102.7 ml/kg/0-4 hr. In addition, the inhibition at 0.1 µM turned out to be 100% on Vasopressin V2 Receptor (setting [5]) and 4.1% at Vasopressin V1 Receptor (setting [5]). In addition, the IC50 was 1.6 nM at Vasopressin V2 Receptor and greater than 1000 nM on Vasopressin V1 Receptor (setting [7]). Besides, the “number of death out of 5 or 6 animals” value in the data set with male ICR mice (setting [6]), in the data set on male ICR mice (setting [3]) and with male ICR mice (setting [4]) was 0/6 in each case.
Turning to `O=C1C[C@H]2CN(C(=O)c3ccc(NC(=O)c4ccccc4-c4ccccc4)cc3)c3ccccc3C(=O)N2C1` [Example 30, (11aS)-10-[4-[(2-Phenylbenzoyl) Amino]Benzoyl]-1,2,3,10,11, 11a-Hexahydro-5H-Pyrrolo [2,1-c][1,4]Benzodiazepin-2,5-Dione], the “Amount of Urine Volume” value in the data set with Normal Conscious Rat [1] (3 mg/kg, i.v.) stood at 57.1 ml/kg/0-4 hr; in the data set on Normal Conscious Rat [1] (30 mg/kg, p.o.) it was 103.0 ml/kg/0-4 hr. Besides, the “number of death out of 5 or 6 animals” value in the data set on male ICR mice (setting [6]), with male ICR mice (setting [3]) and with male ICR mice (setting [4]) was 0/6 in each case.
